The values that follow come from ChEMBL document CHEMBL1150041, “Arylpiperazide derivatives of phenylpiperazines as a new class of potent and selective 5-HT1B receptor antagonists” (Bioorg Med Chem Lett, 1997).

SMILES strings stand for the structures.

The target in assay [1] is 5-hydroxytryptamine receptor 1D (Homo sapiens, UniProt P28221). Briefly: Affinity for 5-hydroxytryptamine 1D receptor subtype.
The target of assay [2] is T1, 5-hydroxytryptamine receptor 1B (Homo sapiens, UniProt P28222). Briefly: The compound was evaluated for intrinsic activity against human cloned 5-hydroxytryptamine 1B receptor.
T1 sequence (P28222 whole entry): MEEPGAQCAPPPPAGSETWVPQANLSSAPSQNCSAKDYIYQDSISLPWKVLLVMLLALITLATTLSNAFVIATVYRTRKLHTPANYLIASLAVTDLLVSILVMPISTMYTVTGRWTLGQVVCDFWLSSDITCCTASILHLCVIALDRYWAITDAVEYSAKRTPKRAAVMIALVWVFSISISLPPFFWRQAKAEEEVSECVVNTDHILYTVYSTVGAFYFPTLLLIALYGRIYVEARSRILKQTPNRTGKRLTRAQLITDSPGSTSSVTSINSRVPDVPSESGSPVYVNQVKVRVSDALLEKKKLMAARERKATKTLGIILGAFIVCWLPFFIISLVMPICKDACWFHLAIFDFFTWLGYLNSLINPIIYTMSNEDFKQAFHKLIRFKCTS
Assay [3] deals with T2, 5-hydroxytryptamine receptor 1A (Homo sapiens, UniProt P08908).
T2 sequence (P08908 whole entry): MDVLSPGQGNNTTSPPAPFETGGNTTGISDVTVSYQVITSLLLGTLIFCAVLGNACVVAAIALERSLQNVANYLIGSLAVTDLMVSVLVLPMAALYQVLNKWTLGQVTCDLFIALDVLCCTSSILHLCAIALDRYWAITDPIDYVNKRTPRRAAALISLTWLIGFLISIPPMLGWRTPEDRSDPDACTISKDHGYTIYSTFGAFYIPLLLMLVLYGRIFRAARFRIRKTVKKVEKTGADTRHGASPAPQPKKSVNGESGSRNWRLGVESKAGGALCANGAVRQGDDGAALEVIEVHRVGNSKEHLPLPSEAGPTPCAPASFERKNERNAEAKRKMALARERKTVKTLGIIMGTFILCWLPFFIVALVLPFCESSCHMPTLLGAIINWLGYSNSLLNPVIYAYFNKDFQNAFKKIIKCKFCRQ
Briefly: Affinity for 5-hydroxytryptamine 1A receptor subtype.

For assay [4], the target named is T1, 5-hydroxytryptamine receptor 1B. In words: Affinity for 5-hydroxytryptamine 1B receptor subtype.
Assay [5] has the same target. In words: The compound was evaluated for antagonist potency at human cloned 5-hydroxytryptamine 1B receptor.
The target is the same in assay [6]. In words: The compound was evaluated for intrinsic activity against human cloned 5-hydroxytryptamine 1B receptor; silent antagonist. It is filed as functional.
Assay [7] shares this target. Briefly: The compound was evaluated for intrinsic activity against human cloned 5-hydroxytryptamine 1B receptor; Slient antagonist. In kind it is functional. Conditions: filed as antagonist.

Chain of 5-hydroxytryptamine receptor 1D (P28221 whole entry): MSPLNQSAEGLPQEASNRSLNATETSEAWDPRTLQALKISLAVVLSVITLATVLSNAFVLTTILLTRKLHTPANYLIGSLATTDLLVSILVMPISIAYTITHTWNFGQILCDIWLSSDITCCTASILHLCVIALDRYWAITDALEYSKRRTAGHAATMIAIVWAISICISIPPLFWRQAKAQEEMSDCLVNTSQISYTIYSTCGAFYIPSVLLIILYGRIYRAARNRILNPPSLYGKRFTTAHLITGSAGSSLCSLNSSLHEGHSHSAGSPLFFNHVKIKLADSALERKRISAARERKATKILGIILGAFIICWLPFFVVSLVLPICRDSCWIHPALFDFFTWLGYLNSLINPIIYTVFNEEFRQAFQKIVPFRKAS

In the case of `COc1ccc(NC(=O)N2CCN(c3ccccc3OC)CC2)cc1N1CCN(C)CC1`, the affinity in assay [1] corresponds to a Ki of 90 nM. The same compound had a Kb in assay [2] of 16 nM.

As to `COc1cccc(N2CCN(C(=O)Nc3ccc(OC)c(N4CCN(C)CC4)c3)CC2)c1`, the figures for the Ki in assay [1], in assay [3] and in assay [4] were 70 nM, 79 nM and 8 nM, respectively.

In the case of `COc1ccc(NC(=O)N2CCN(c3cccc4c3CCCC4)CC2)cc1N1CCN(C)CC1`, the Ki turned out to be 26 nM in assay [1], 257 nM in assay [3] and 0.5 nM in assay [4]. The Kb in assay [2] is 39 nM.

The compound `Cc1nc(-c2ccc(-c3ccc(C(=O)N4CCc5cc6c(cc54)C4(CCN(C)CC4)CO6)cc3)c(C)c2)no1` [SB-224289] showed a Ki in assay [3] above 1000 nM.

Turning to `COc1ccc(NC(=O)N2CCN(c3c(C)cccc3C)CC2)cc1N1CCN(C)CC1`, the Ki in assay [1] is 37 nM; in assay [3], 393 nM; in assay [4], 1.3 nM. This compound also showed a KB in assay [5] of 10 nM.

Take `COc1ccc(NC(=O)c2ccc(-c3ccc(-c4noc(C)n4)cc3C)cc2)cc1N1CCN(C)CC1` [GR-127935]: the figures for the Ki in assay [3] and in assay [4] were 72 nM and 0.14 nM, respectively.

For `COc1ccc(NC(=O)N2CCN(c3ccccc3C)CC2)cc1N1CCN(C)CC1`, the Kb in assay [6] came out at 12 nM. The affinity in assay [3], expressed as Ki, was 390 nM.

For `COc1ccc(N2CCN(C(=O)Nc3ccc(OC)c(N4CCN(C)CC4)c3)CC2)cc1`, the Kb in assay [2] turned out to be 12 nM.

On to `COc1ccc(NC(=O)N2CCN(c3ccc(C)cc3C)CC2)cc1N1CCN(C)CC1`, for which the Ki amounted to 88 nM in assay [1], 571 nM in assay [3] and 1.8 nM in assay [4]. In assay [5], this compound had a KB of 1.9 nM.

For `COc1ccc(NCC(=O)N2CCN(c3ccccc3C)CC2)cc1N1CCN(C)CC1`, the Ki in assay [1] is 420 nM; in assay [4], 40 nM. Moreover, the Kb in assay [6] came to 195 nM.

For `Cc1ccccc1N1CCN(C(=O)Oc2ccc(Cl)c(N3CCN(C)CC3)c2)CC1`, the Ki was 3.6 nM in assay [1], above 1000 nM in assay [3] and 150 nM in assay [4]. Further, the Intrinsic activity result in assay [7] is “Antagonist”.

Regarding `COc1ccc(NC(=O)N2CCN(c3ccccc3)CC2)cc1N1CCN(C)CC1`, the Ki in assay [1] is 340 nM; in assay [3], 450 nM; in assay [4], 18 nM. Further, the Kb in assay [2] stood at 27 nM.

For `Cc1ccccc1N1CCN(C(=O)COc2ccc(Cl)c(N3CCN(C)CC3)c2)CC1`, the Ki was 240 nM in assay [1], above 1000 nM in assay [3] and 11 nM in assay [4]. In assay [6], the Kb was found to be 38 nM.

The Ki is the dissociation constant of the complex between target and ligand, obtained from inhibition or displacement. Read a low Ki as a stronger hold on the target. The KB is the equilibrium dissociation constant of an antagonist, usually derived from a functional assay. Read a low KB as higher antagonist affinity.
